“Also recorded” adds a separate entry of the source.

Common to all, as to format: cell-based, human
The subject of assay [1] is cancer cells across different cancer types. Description: in vitro transwell migration assay, statements across cancer types. The note with it: 16 hours. The protocol:
Migration of different cancer cells under control air or 250 ppm CO treatment with or without supplement of 30 µM hemin was determined using in vitro transwell migration chamber with a serum gradient. Indicated cell lines were seeded into the transwell inserts. 16 hours later, cells on the top of the upper chambers were removed, and cells on the bottom surface of the transwell inserts were fixed, stained with crystal violet, and counted from eight randomly picked fields in three independent experiments. Error bars represent SEM. *: P < 0.05, two-sided t-test. Scale bar, 100 µm. […]
6.5 mm Transwell with 8.0 µm Pore Polycarbonate Membrane Insert (Corning, NY, Cat. No. 3422) was used for the cell migration assay (FIG. 1J). After 16 hours of incubation, cells migrated to the opposite side of the upper chambers were fixed with 4% paraformaldehyde, stained with 0.2% crystal violet for 30 min and counted in five fields under × 20 magnification. […] The optical density was measured at 595 nm (OD595). […]
(§1) To investigate whether 250 ppm CO induces hypoxia, HiF1α protein levels in low-dose CO-treated MCF7/TGL and MDA-MB-231/TGL cells were examined. […] To assess the intracellular heme levels affected by low-dose CO treatment, oxidized heme levels in the form of hemin (Fe^3+ state) were measured because free heme (Fe^2+ state) is readily oxidized and cannot be measured. […]

Assay [2] relates to various cancer cell lines. Description: proliferation assay, statements across cancer types. The method, then:
(§2) Proliferation of different cancer cells under control air or 250 ppm CO treatment with or without supplement of 30 µM hemin was determined. Indicated cell lines cell lines were seeded in the 24-well plate in normal growth media. 16 hours later, cells were fixed, stained with crystal violet, and lysed by methanol. OD595 were measured from triplicates of each cell type. Error bars represent SEM. *: P < 0.05, two-sided t-test. Scale bar, 100 µm.
6.5 mm Transwell with 8.0 µm Pore Polycarbonate Membrane Insert (Corning, NY, Cat. No. 3422) was used for the cell migration assay (FIG. 1J). After 16 hours of incubation, cells migrated to the opposite side of the upper chambers were fixed with 4% paraformaldehyde, stained with 0.2% crystal violet for 30 min and counted in five fields under × 20 magnification. In parallel, cells were seeded on 24-well plates for proliferation assay. […] The optical density was measured at 595 nm (OD595). […]
as §1

In assay [3] the test system is CM cells. Briefly: proliferation assay (crystal violet, OD595). The settings on record: 16 hours. The method, then: as §2
(§3) 6.5 mm Transwell with 8.0 µm Pore Polycarbonate Membrane Insert (Corning, NY, Cat. No. 3422) was used for the cell migration assay (FIG. 1J). After 16 hours of incubation, cells migrated to the opposite side of the upper chambers were fixed with 4% paraformaldehyde, stained with 0.2% crystal violet for 30 min and counted in five fields under × 20 magnification. In parallel, cells were seeded on 24-well plates for proliferation assay. Cells for proliferation control were fixed with 4% paraformaldehyde, stained with 0.2% crystal violet for 30 min and lysed with methanol to release the crystal violet as described by M. Feoktistova, P. Geserick, & M. Leverkus, Cold Spring Harb Protoc 2016, pdb prot087379 (2016). The optical density was measured at 595 nm (OD595). To supplement heme/hemin in the transwell migration assay, 30 µM hemin (MedChemExpress, Monmouth Junction, NJ, Cat. No. HY-19424) was added to both the cell suspension in the upper chambers and the bottom wells.
(§4) To examine whether CO has an effect on tumor cell migration, in vitro transwell migration assays were performed. Various human cancer cell lines, including 3 types of breast cancer (ER^+: MCF7 cells, HER2^+: HCC1954 cells, triple-negative breast cancer (TNBC): MDA-MB-231 cells), pancreatic ductal adenocarcinoma (PDAC) (8988T cells), pancreatic neuroendocrine tumor (PNET) (CM cells), colon cancer (SW480 cells), prostate cancer (22Rv1 cells), liver cancer (HepG2 cells), and lung cancer (H1975 cells) were seeded in the upper chamber of 8-µm porous polycarbonate membranes. Cell migration through the transwell membrane along a serum gradient (Table 1) after 16 hours in the presence or absence of 250 ppm CO were measured.

Assay [4] deals with MCF7 cells. Briefly: proliferation assay (crystal violet, OD595). The settings on record: 16 hours. The protocol: as §2, §3, §4
Assay [5] has as its system HCC1954 cells. Description: proliferation assay (crystal violet, OD595). The note with it: 16 hours. The method, then: as §2, §3, §4
Assay [6] relates to H1975 cells. Briefly: proliferation assay (crystal violet, OD595). The note with it: 16 hours. The method, then:
as §2, §3, §4

In assay [7] the test system is HepG2 cells. Description: proliferation assay (crystal violet, OD595). The settings on record: 16 hours. The method, then:
as §2, §3, §4

Assay [8] deals with SW480 cells. Briefly: proliferation assay (crystal violet, OD595). The note with it: 16 hours. The protocol: as §2, §3, §4
For assay [9], the system named is 8988T cells. Briefly: proliferation assay (crystal violet, OD595). The settings on record: 16 hours. The protocol: as §2, §3, §4
Assay [10] deals with 22Rv1 cells. Briefly: proliferation assay (crystal violet, OD595). The settings on record: 16 hours. The method, then: as §2, §3, §4
In assay [11] the test system is MDA-MB-231 cells. Briefly: proliferation assay (crystal violet, OD595). The note with it: 16 hours. The protocol:
as §2, §3
To examine whether CO has an effect on tumor cell migration, in vitro transwell migration assays were performed. […] Cell migration through the transwell membrane along a serum gradient (Table 1) after 16 hours in the presence or absence of 250 ppm CO were measured.
5 × 10^4 MDA-MB-231-TGL cells were seeded in the upper chamber of 8-µm porous polycarbonate membranes with DMEM containing 0% FBS, 0.2 mM L-glutamine and 1% penicillin/streptomycin. […] The optical density was measured at 595 nm (OD595).

The mark [12] stands for this setting: 30 µM hemin, with or without 250 ppm CO.

Turning to `[C-]#[O+]` [CO, Carbon monoxide], the “cancer cell migration across different cancer types” value in [1] (250 ppm CO, transwell with serum gradient, vs control air) is given as “decreases”. Besides, the “cancer cell proliferation across different cancer types” value in [2] (250 ppm CO for 16 hours, vs control air) was “does not affect”. Moreover, the cell proliferation entry is recorded as “did not affect” in [3] (250 ppm CO, vs control air); “did not affect” in [4] (MCF7 cells, 250 ppm CO, vs control air); “did not affect” in [5] (250 ppm CO, vs control air); “did not affect” in assay [6] (250 ppm CO, vs control air); “did not affect” in assay [7] (250 ppm CO, vs control air); “did not affect” in [8] (250 ppm CO, vs control air). In addition, the cell proliferation entry in assay [9] (250 ppm CO, vs control air) is given as “did not affect”; in assay [10] (250 ppm CO, vs control air), “did not affect”; in assay [11] (MDA-MB-231 cells, 250 ppm CO, vs control air), “did not affect”. In addition, in [11] (CO, higher density (6.25 × 10^4 or 12.5 × 10^4 cells per 24-well) compared with lower density (3.125 × 10^4 cells per 24-well)), the “inhibitory effect on MDA-MB-231 cell proliferation by seeding density” value was “greater inhibitory effect”.

On to Hemin [reference compound], for which, in assay [1] (30 µM hemin + 250 ppm CO, transwell, cell lines not named at the place (FIGS. 1A-1I; 1C-1E)), the “cell migration inhibited by CO (rescue by hemin supplement)” value is “partially restored; also recorded: rescued”. Also, the “cell proliferation of various cancer cell lines with hemin” value in assay [2] (30 µM hemin in the medium (FIGS. 2C-2E)) was “slightly increased”. The “cancer cell proliferation with hemin supplement” value in assay [3] (setting [12]) is reported as “did not alter”; in assay [4] (MCF7/TGL cells, 30 µM hemin, with or without 250 ppm CO), “did not alter”; in assay [5] (setting [12]), “did not alter”; in assay [6] (setting [12]) it was “did not alter”; in assay [7] (setting [12]), “did not alter”; in assay [8] (setting [12]), “did not alter”. Also, the “cancer cell proliferation with hemin supplement” value in assay [9] (setting [12]) was “did not alter”; in assay [10] (setting [12]), “did not alter”; in assay [11] (MDA-MB-231/TGL cells, 30 µM hemin, with or without 250 ppm CO), “did not alter”.

Source of the values: patent publication US20230346831A1, “METHODS FOR TREATING […] USING LOW DOSE CARBON MONOXIDE” (priority 2020, published 2023).
